Data on seven compounds can be found in patent US20250353891A1 (MEDIMMUNE LIMITED, priority 2022, published 2025).

Starred links: 1 amine or outer side, 2 acyl side, 3 side chain; linkers in the order of their positions; H or OH if unused. Non-standard residues stand in square brackets, D forms with d. Residues, ends and D or L forms follow the SMILES beside them. Groups on a side chain read outwards from the residue. *: point of attachment. C20 diacid = O=C(O)CCCCCCCCCCCCCCCCCCC(=O)*; C18 diacid = O=C(O)CCCCCCCCCCCCCCCCC(=O)*; γGlu = O=C(O)[C@H](CCC(=O)[*:2])N[*:1]; αMeF = C[C@](N)(Cc1ccccc1)C(=O)O; AEEA = NCCOCCOCC(=O)O; Aib = CC(C)(N)C(=O)O

For assay [1], the target named is human glucagon receptor (hGCGR) (Homo sapiens, UniProt P47871). Put plainly: cAMP production (HTRF) in CHO cells expressing hGCGR. In kind it is cell-based. The arrangement: expressed in transfected cells. As to conditions: Table 6, peptides modified at position 17; cAMP in CHO hGCGR cells; geometric mean; read-out: hGluc-R EC50. In outline: (§1)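 Read-out: HTRF cAMP (anti-cAMP cryptate donor, cAMP-d2 acceptor in conjugate/lysis buffer), converted to % Delta F and fitted by 4-parameter logistic for EC50. Cell densities were 1×10^5 cells/mL (hGLP-1R) or 2×10^5 cells/mL (hGCGR). Stimulation lasted 30 min at room temperature.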
On the technique in general: Changes in cAMP serve as a functional read-out for many G protein-coupled receptors.

The target of assay [2] is human GLP-1 receptor (hGLP-1R) (Homo sapiens, UniProt P43220). Nature of the assay: cAMP production (HTRF) in CHO cells expressing hGLP-1R. It is filed as cell-based. Details: expressed in transfected cells. The settings on record: for EC50: Table 6, peptides modified at position 17, cAMP in CHO hGLP-1R cells, geometric mean, read-out: hGLP-1R EC50; for % Relative Potency Ratio: Table 6, % GLP-1R activity relative to GLP-1 / % GlucR activity relative to glucagon. In outline: as §1
human GLP-1 receptor (hGLP-1R), sequence (P43220 24-463): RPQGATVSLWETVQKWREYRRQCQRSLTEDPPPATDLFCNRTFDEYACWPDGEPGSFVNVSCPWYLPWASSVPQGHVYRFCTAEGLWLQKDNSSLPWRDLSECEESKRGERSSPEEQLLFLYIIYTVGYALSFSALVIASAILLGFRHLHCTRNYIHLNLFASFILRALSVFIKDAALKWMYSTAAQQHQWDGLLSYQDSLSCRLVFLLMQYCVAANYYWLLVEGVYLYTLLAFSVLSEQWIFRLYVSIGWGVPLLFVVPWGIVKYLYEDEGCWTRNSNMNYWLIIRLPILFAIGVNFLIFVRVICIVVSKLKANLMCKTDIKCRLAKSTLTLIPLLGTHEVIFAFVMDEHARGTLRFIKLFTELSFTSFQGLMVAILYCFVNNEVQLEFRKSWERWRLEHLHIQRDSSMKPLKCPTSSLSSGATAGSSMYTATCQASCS

human glucagon receptor (hGCGR), sequence (P47871 26-477): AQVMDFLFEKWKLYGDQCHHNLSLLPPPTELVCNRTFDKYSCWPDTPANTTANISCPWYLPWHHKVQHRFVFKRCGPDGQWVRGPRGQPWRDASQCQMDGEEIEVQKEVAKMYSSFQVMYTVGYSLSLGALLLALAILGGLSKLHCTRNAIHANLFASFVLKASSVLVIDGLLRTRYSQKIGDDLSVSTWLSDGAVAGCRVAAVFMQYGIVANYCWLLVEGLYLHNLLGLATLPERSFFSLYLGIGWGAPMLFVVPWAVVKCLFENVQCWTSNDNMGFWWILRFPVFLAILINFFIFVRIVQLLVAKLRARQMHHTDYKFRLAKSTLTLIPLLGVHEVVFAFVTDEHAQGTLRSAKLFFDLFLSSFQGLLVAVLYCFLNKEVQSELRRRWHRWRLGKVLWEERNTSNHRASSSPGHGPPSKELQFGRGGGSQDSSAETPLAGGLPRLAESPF

As for `CC(C)C[C@H](NC(=O)[C@H](Cc1c[nH]c2ccccc12)NC(=O)[C@H](CCCNC(=N)N)NC(=O)[C@@H](NC(=O)[C@H](Cc1ccccc1)NC(=O)[C@H](CC(=O)O)NC(=O)[C@H](CCC(N)=O)NC(=O)[C@H](C)NC(=O)[C@H](CCCNC(=N)N)NC(=O)[C@H](CCCCNC(=O)COCCOCCNC(=O)COCCOCCNC(=O)CC[C@H](NC(=O)CCCCCCCCCCCCCCCCC(=O)O)C(=O)O)NC(=O)[C@H](CCCNC(=N)N)NC(=O)[C@H](CC(=O)O)NC(=O)[C@H](CC(C)C)NC(=O)[C@](C)(Cc1ccccc1)NC(=O)[C@H](CCCCN)NC(=O)[C@H](CO)NC(=O)[C@@H](NC(=O)[C@H](CC(=O)O)NC(=O)[C@H](CO)NC(=O)[C@@H](NC(=O)[C@H](Cc1ccccc1)NC(=O)[C@@H](NC(=O)CNC(=O)[C@H](CCC(N)=O)NC(=O)C(C)(C)NC(=O)[C@@H](N)Cc1c[nH]cn1)[C@@H](C)O)[C@@H](C)O)C(C)C)C(C)C)C(=O)N[C@H](C(=O)NC(C)(C)C(=O)N[C@@H](CCC(=O)O)C(N)=O)C(C)C` [Peptide 436] (H-H[Aib]QGTFTSDVSK[αMeF]LDRK([AEEA-AEEA-γGlu-C18 diacid])RAQDFVRWLV[Aib]E-NH2; N-terminus assumed), the EC50 (in general, the concentration giving half of the maximal effect) in assay [1] was 0.0688 nM; in assay [2] it was 0.00743 nM. Also, in assay [2], the “% Relative Potency Ratio” value stood at 18.3.

For the compound `CC(C)C[C@H](NC(=O)[C@H](Cc1c[nH]c2ccccc12)NC(=O)[C@H](CCCNC(=N)N)NC(=O)[C@@H](NC(=O)[C@H](Cc1ccccc1)NC(=O)[C@H](CC(=O)O)NC(=O)[C@H](CCC(N)=O)NC(=O)[C@H](C)NC(=O)[C@H](CCCNC(=N)N)NC(=O)[C@H](CCCCNC(=O)COCCOCCNC(=O)COCCOCCNC(=O)CC[C@H](NC(=O)CCCCCCCCCCCCCCCCCCC(=O)O)C(=O)O)NC(=O)[C@H](CCCNC(=N)N)NC(=O)[C@H](CC(=O)O)NC(=O)[C@H](CC(C)C)NC(=O)[C@](C)(Cc1ccccc1)NC(=O)[C@H](CCCCN)NC(=O)[C@H](CO)NC(=O)[C@@H](NC(=O)[C@H](CC(=O)O)NC(=O)[C@H](CO)NC(=O)[C@@H](NC(=O)[C@H](Cc1ccccc1)NC(=O)[C@@H](NC(=O)CNC(=O)[C@H](CCC(N)=O)NC(=O)C(C)(C)NC(=O)[C@@H](N)Cc1c[nH]cn1)[C@@H](C)O)[C@@H](C)O)C(C)C)C(C)C)C(=O)N[C@H](C(=O)NC(C)(C)C(=O)N[C@@H](CCC(=O)O)C(N)=O)C(C)C` [Peptide 437] (H-H[Aib]QGTFTSDVSK[αMeF]LDRK([AEEA-AEEA-γGlu-C20 diacid])RAQDFVRWLV[Aib]E-NH2), the EC50 in assay [1] came out at 0.0969 nM. Further, in assay [2], the EC50 is 0.0269 nM and the “% Relative Potency Ratio” value came out at 7.1.

As for `CC(C)C[C@H](NC(=O)[C@H](Cc1c[nH]c2ccccc12)NC(=O)[C@H](CCCNC(=N)N)NC(=O)[C@@H](NC(=O)[C@H](Cc1ccccc1)NC(=O)[C@H](CC(=O)O)NC(=O)[C@H](CCC(N)=O)NC(=O)[C@H](C)NC(=O)[C@H](CCCNC(=N)N)NC(=O)[C@H](CCCCNC(=O)COCCOCCNC(=O)COCCOCCNC(=O)CC[C@H](NC(=O)CCCCCCCCCCCCCCCCC(=O)O)C(=O)O)NC(=O)[C@H](CCCCN)NC(=O)[C@H](CC(=O)O)NC(=O)[C@H](CC(C)C)NC(=O)[C@](C)(Cc1ccccc1)NC(=O)[C@H](CCCCN)NC(=O)[C@H](CO)NC(=O)[C@@H](NC(=O)[C@H](CC(=O)O)NC(=O)[C@H](CO)NC(=O)[C@@H](NC(=O)[C@H](Cc1ccccc1)NC(=O)[C@@H](NC(=O)CNC(=O)[C@H](CCC(N)=O)NC(=O)C(C)(C)NC(=O)[C@@H](N)Cc1c[nH]cn1)[C@@H](C)O)[C@@H](C)O)C(C)C)C(C)C)C(=O)N[C@@H](CCC(=O)O)C(=O)N[C@@H](C)C(=O)NC(C)(C)C(=O)NCC(N)=O` [Peptide 438] (H-H[Aib]QGTFTSDVSK[αMeF]LDKK([AEEA-AEEA-γGlu-C18 diacid])RAQDFVRWLEA[Aib]G-NH2; N-terminus assumed), in assay [1], the EC50 was determined as 0.0689 nM. Besides, in assay [2], the EC50 was determined as 0.0179 nM and the “% Relative Potency Ratio” value turned out to be 7.6.

As to `CC(C)C[C@H](NC(=O)[C@H](Cc1c[nH]c2ccccc12)NC(=O)[C@H](CCCNC(=N)N)NC(=O)[C@@H](NC(=O)[C@H](Cc1ccccc1)NC(=O)[C@H](CC(=O)O)NC(=O)[C@H](CCC(N)=O)NC(=O)[C@H](C)NC(=O)[C@H](CCCNC(=N)N)NC(=O)[C@H](CCCCNC(=O)COCCOCCNC(=O)COCCOCCNC(=O)CC[C@H](NC(=O)CCCCCCCCCCCCCCCCC(=O)O)C(=O)O)NC(=O)[C@H](CCCNC(=N)N)NC(=O)[C@H](CC(=O)O)NC(=O)[C@H](CC(C)C)NC(=O)[C@](C)(Cc1ccccc1)NC(=O)[C@H](CCCCN)NC(=O)[C@H](CO)NC(=O)[C@@H](NC(=O)[C@H](CC(=O)O)NC(=O)[C@H](CO)NC(=O)[C@@H](NC(=O)[C@H](Cc1ccccc1)NC(=O)[C@@H](NC(=O)CNC(=O)[C@H](CCC(N)=O)NC(=O)C(C)(C)NC(=O)[C@@H](N)Cc1c[nH]cn1)[C@@H](C)O)[C@@H](C)O)C(C)C)C(C)C)C(=O)N[C@@H](CC(C)C)C(=O)NC(C)(C)C(=O)N[C@@H](CCC(=O)O)C(N)=O` [Peptide 439] (H-H[Aib]QGTFTSDVSK[αMeF]LDRK([AEEA-AEEA-γGlu-C18 diacid])RAQDFVRWLL[Aib]E-NH2; N-terminus assumed), the EC50 in assay [1] was 0.0577 nM. In addition, in assay [2], the EC50 was determined as 0.0306 nM and the “% Relative Potency Ratio” value is 3.7.

As to `CC(C)C[C@H](NC(=O)[C@H](Cc1c[nH]c2ccccc12)NC(=O)[C@H](CCCNC(=N)N)NC(=O)[C@@H](NC(=O)[C@H](Cc1ccccc1)NC(=O)[C@H](CC(=O)O)NC(=O)[C@H](CCCNC(=N)N)NC(=O)[C@H](C)NC(=O)[C@H](CCCNC(=N)N)NC(=O)[C@H](CCCCNC(=O)COCCOCCNC(=O)COCCOCCNC(=O)CC[C@H](NC(=O)CCCCCCCCCCCCCCCCCCC(=O)O)C(=O)O)NC(=O)[C@H](CCCCN)NC(=O)[C@H](CC(=O)O)NC(=O)[C@H](CC(C)C)NC(=O)[C@](C)(Cc1ccccc1)NC(=O)[C@H](CCCCN)NC(=O)[C@H](CO)NC(=O)[C@@H](NC(=O)[C@H](CC(=O)O)NC(=O)[C@H](CO)NC(=O)[C@@H](NC(=O)[C@H](Cc1ccccc1)NC(=O)[C@@H](NC(=O)CNC(=O)[C@H](CCC(N)=O)NC(=O)C(C)(C)NC(=O)[C@@H](N)Cc1c[nH]cn1)[C@@H](C)O)[C@@H](C)O)C(C)C)C(C)C)C(=O)N[C@@H](CC(C)C)C(=O)NC(C)(C)C(=O)N[C@@H](CCC(=O)O)C(=O)O` [Peptide 440] (H-H[Aib]QGTFTSDVSK[αMeF]LDKK([AEEA-AEEA-γGlu-C20 diacid])RARDFVRWLL[Aib]E-OH; N-terminus assumed), the EC50 in assay [1] was 0.081 nM. In assay [2], the EC50 was determined as 0.154 nM and the “% Relative Potency Ratio” value is recorded as 1.0.

As to `CC(C)C[C@H](NC(=O)[C@H](Cc1c[nH]c2ccccc12)NC(=O)[C@H](CCCNC(=N)N)NC(=O)[C@@H](NC(=O)[C@H](Cc1ccccc1)NC(=O)[C@H](CC(=O)O)NC(=O)[C@H](CCC(N)=O)NC(=O)[C@H](C)NC(=O)[C@H](CCCNC(=N)N)NC(=O)[C@H](CCCCNC(=O)COCCOCCNC(=O)COCCOCCNC(=O)CC[C@H](NC(=O)CCCCCCCCCCCCCCCCCCC(=O)O)C(=O)O)NC(=O)[C@H](CCCCN)NC(=O)[C@H](CC(=O)O)NC(=O)[C@H](CC(C)C)NC(=O)[C@](C)(Cc1ccccc1)NC(=O)[C@H](CCCCN)NC(=O)[C@H](CO)NC(=O)[C@@H](NC(=O)[C@H](CC(=O)O)NC(=O)[C@H](CO)NC(=O)[C@@H](NC(=O)[C@H](Cc1ccccc1)NC(=O)[C@@H](NC(=O)CNC(=O)[C@H](CCC(N)=O)NC(=O)C(C)(C)NC(=O)[C@@H](N)Cc1c[nH]cn1)[C@@H](C)O)[C@@H](C)O)C(C)C)C(C)C)C(=O)N[C@@H](CC(C)C)C(=O)NC(C)(C)C(=O)N[C@@H](CCC(=O)O)C(N)=O` [Peptide 441] (H-H[Aib]QGTFTSDVSK[αMeF]LDKK([AEEA-AEEA-γGlu-C20 diacid])RAQDFVRWLL[Aib]E-NH2; N-terminus assumed), the EC50 in assay [1] was 0.0728 nM. In addition, in assay [2], the EC50 worked out at 0.0627 nM and the “% Relative Potency Ratio” value is reported as 2.3.

As for `CC(C)C[C@H](NC(=O)[C@H](Cc1c[nH]c2ccccc12)NC(=O)[C@H](CCCNC(=N)N)NC(=O)[C@@H](NC(=O)[C@H](Cc1ccccc1)NC(=O)[C@H](CC(=O)O)NC(=O)[C@H](CCC(N)=O)NC(=O)[C@H](C)NC(=O)[C@H](CCCNC(=N)N)NC(=O)[C@H](CCCCNC(=O)COCCOCCNC(=O)COCCOCCNC(=O)CC[C@H](NC(=O)CCCCCCCCCCCCCCCCC(=O)O)C(=O)O)NC(=O)[C@H](CCCCN)NC(=O)[C@H](CC(=O)O)NC(=O)[C@H](CC(C)C)NC(=O)[C@](C)(Cc1ccccc1)NC(=O)[C@H](CCCCN)NC(=O)[C@H](CO)NC(=O)[C@@H](NC(=O)[C@H](CC(=O)O)NC(=O)[C@H](CO)NC(=O)[C@@H](NC(=O)[C@H](Cc1ccccc1)NC(=O)[C@@H](NC(=O)CNC(=O)[C@H](CCC(N)=O)NC(=O)C(C)(C)NC(=O)[C@@H](N)Cc1c[nH]cn1)[C@@H](C)O)[C@@H](C)O)C(C)C)C(C)C)C(=O)N[C@@H](CC(C)C)C(=O)N[C@@H](CCC(=O)O)C(=O)NC(C)(C)C(=O)NCC(N)=O` [Peptide 442] (H-H[Aib]QGTFTSDVSK[αMeF]LDKK([AEEA-AEEA-γGlu-C18 diacid])RAQDFVRWLLE[Aib]G-NH2; N-terminus assumed), the EC50 in assay [1] amounted to 0.0358 nM. In assay [2], the EC50 stood at 0.0191 nM and the “% Relative Potency Ratio” value came out at 3.7.
